From PubChem BioAssay AID602191 (Broad Institute, 2012)
Activity calls are given as the source filed them.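 Rule for the calls: active = fitted curve reaches 40% activation at a concentration no higher than the top valid tested dose; inconclusive = flat fit between 30% and 70% activation, or poor fit; inactive = uptake decrease, flat fit within 30% of zero, the rest.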

Target: Scavenger receptor class B member 1 (Mus musculus) (UniProt Q61009)
Assay: enhancers of DiI-HDL lipid transfer via SR-BI – cell-based, ldlA[mSR-BI] CHO, DiI fluorescence, cherry-pick, dose response (AID 602191);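 note: cell fluorescence from internalized DiI-labeled HDL after washing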;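 for AC40: potency of activators raising HDL uptake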;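 for activation (HDL uptake increase): 0% = median of DMSO wells and 100% = twice the DMSO signal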
Details: ldlA[mSR-BI] CHO cells, 3 h

Chain of Scavenger receptor class B member 1 (Mus musculus) (Q61009 whole entry, looked up): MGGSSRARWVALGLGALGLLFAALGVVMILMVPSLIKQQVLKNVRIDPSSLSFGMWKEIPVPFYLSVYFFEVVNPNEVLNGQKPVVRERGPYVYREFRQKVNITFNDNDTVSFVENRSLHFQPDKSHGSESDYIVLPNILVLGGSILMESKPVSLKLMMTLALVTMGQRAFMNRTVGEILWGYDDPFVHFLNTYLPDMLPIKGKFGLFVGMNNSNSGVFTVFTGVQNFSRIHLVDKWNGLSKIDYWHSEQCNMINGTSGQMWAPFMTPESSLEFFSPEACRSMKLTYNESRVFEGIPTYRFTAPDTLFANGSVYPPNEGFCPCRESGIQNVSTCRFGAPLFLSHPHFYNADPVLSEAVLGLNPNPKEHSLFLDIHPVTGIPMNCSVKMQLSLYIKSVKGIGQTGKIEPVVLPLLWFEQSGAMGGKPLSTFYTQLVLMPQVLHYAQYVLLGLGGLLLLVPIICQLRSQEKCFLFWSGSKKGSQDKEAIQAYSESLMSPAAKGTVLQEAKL

| Compound | activation (HDL uptake increase) (at 35 µM (top of the series)) | other results |
| --- | --- | --- |
| CCCCCC(=O)Nc1cc(S(=O)(=O)N2CCOCC2)ccc1N1CCCCC1 | -0.494% (inactive) |  |
| O=C1CCCCN1CCC(=O)N1CCCC(Nc2ccccc2)C1 (centres undefined) | 4.76% (inactive) |  |
| CC1CCC(NC(=O)CCNS(=O)(=O)c2ccccc2)CC1 (centres undefined) | 10.2% (inactive) |  |
| CC(C)CN(C(=O)CCNC(=O)c1ccccc1Cl)C1CCS(=O)(=O)C1 (centres undefined) | 0.946% (inactive) |  |
| C=CC[C@@H](CC(=O)N[C@@H](CO)Cc1ccccc1)C(=O)N[C@H](COC(=O)[C@@H](CC=C)CC(=O)OC(C)(C)C)Cc1c[nH]c2ccccc12 | 65.3% (inactive) |  |
| Cc1noc(/C=C/N(C)C)c1S(=O)(=O)N1CCCC(C(=O)NCc2ccco2)C1 (centres undefined) | -1.39% (inactive) |  |
| CC(=O)c1cccc(S(=O)(=O)NCCCN2CCOCC2)c1 | -4.98% (inactive) |  |
| O=C(CCN1C(=O)[C@@H]2Cc3ccccc3CN2C1=O)N[C@@H](C(=O)O)c1ccccc1 | -2.01% (inactive) |  |
| CCOc1ccc(S(=O)(=O)N2CCN=C2c2ccccc2)c(C)c1C | -9.83% (inactive) |  |
| CC1CCCC(NC(=O)CSc2nncs2)C1C (centres undefined) | -4.42% (inactive) |  |
| Cn1c(SCC(=O)N2CCCCCC2)nc2c(c1=O)SCC2 | -10.7% (inactive) |  |
| COC(=O)C1=C(c2ccc(F)cc2OCc2ccccc2)C[C@@H]2CC[C@H]1N2C(=O)N1CCC(O)CC1 | -7.61% (inactive) |  |
| CC(C)C[C@@H](CN1CCCC1CN1C(=S)NC[C@@H]1Cc1ccc(O)cc1)N1C[C@H](Cc2ccc(O)cc2)N(CC2CCCCC2)C1=S (some centres undefined) |  | activation (HDL uptake increase) (at 11 µM (top of the series)): -10.2% (inactive) |
| CCn1c(C(=O)O)c(CC(=O)NC2CCCCCC2)c2ccccc21 |  | AC40 (DiI-HDL uptake fluorescence): > 35 µM (inactive) |
| Cc1c(C(=O)NCCN2CCOC2=O)oc2c(F)cccc12 | -0.811% (inactive) |  |
| Cc1ccc(C(=O)N/C(=C/c2ccccc2)C(=O)NC(Cc2ccccc2)C(=O)O)cc1 (centres undefined) | 8.63% (inactive) |  |
| O=C(NC(=S)N(Cc1ccccc1)Cc1ccccc1)c1ccccc1F | -11.7% (inactive) |  |
| Cc1csc(NC(=O)Cc2ccccc2[N+](=O)[O-])n1 | 1.17% (inactive) |  |
| COc1ccc(NC(=O)COC(=O)c2cc(SC)ccc2Cl)c(OC)c1 | -14.1% (inactive) |  |
| O=C(C[C@H]1C[C@H](C(=O)N2CCOCC2)[C@@]2(CCC3CCCC3)c3[nH]c4ccc(Cl)cc4c3CCN2C1=O)NCc1ccco1 | -3.23% (inactive) |  |

| Compound | activation (HDL uptake increase) (at 35 µM (top of the series)) | other results |
| --- | --- | --- |
| CCn1c(COC(=O)CNC(=O)c2ccccc2)nc2cc(S(=O)(=O)N(C)C)ccc21 | -13.2% (inactive) |  |
| CN1CCN(C(=O)C2CCCN(S(=O)(=O)c3ccc(Br)cc3)C2)CC1 (centres undefined) | -5.87% (inactive) |  |
| O=C(CN1CCN(S(=O)(=O)c2ccc(Cl)s2)CC1)NCc1ccc(Cl)cc1 | -4.32% (inactive) |  |
| O=C(CNC(=O)c1ccco1)NCCCc1ccccc1 | -5.97% (inactive) |  |
| Cc1ccc(SCC(=O)NNC(=O)CCS(=O)(=O)c2ccc(C)cc2)cc1 | 0.551% (inactive) |  |
| CC(C)C(C)(C#N)NC(=O)CSc1nnc(C(F)(F)F)n1C (centres undefined) | -5.69% (inactive) |  |
| COc1ccc(-n2nc(C(=O)NCC(=O)O)c3ccccc3c2=O)cc1 | 11.7% (inactive) |  |
| Cc1cccc(NC(=O)CCC(=O)OCc2ccc(Br)cc2)c1 | -7.9% (inactive) |  |
| O=C(CCC(=O)OCC(=O)c1ccc([N+](=O)[O-])cc1)Nc1ccccc1Cl | -5.05% (inactive) |  |
| Clc1ccc2nc(CN3CCCCCC3)cn2c1 | 0.923% (inactive) |  |
| O=C(CCCCCN1C(=O)c2ccccc2C1=O)Nc1ccc(C(=O)O)cc1 | -6.25% (inactive) |  |
| COC(=O)CNC(=O)C12CC3CC(C1)CC(c1ccc(C)cc1)(C3)C2 | -4.62% (inactive) |  |
| O=C(CSc1nnnn1-c1ccccc1)N1CCNC1=O | -10.4% (inactive) |  |
| CC(=O)NC1(C2CCCCC2=O)CCCCC1 (centres undefined) | -3.84% (inactive) |  |
| CC(C)CC(CO)N1CCN(C(=O)c2cccc(C(F)(F)F)c2)CCC1=O (centres undefined) | -7.8% (inactive) |  |
| COCCNC(=O)c1onc(CSc2cccc(OC)c2)c1C(=O)O | 11.9% (inactive) |  |
| O=C(COC(=O)C1CCCCC1)Nc1cccc(Br)c1 | -5.26% (inactive) |  |
| CCOc1ccc(N(CC(=O)NC2CCCCCC2)S(=O)(=O)c2ccccc2)cc1 | 11.8% (inactive) |  |
| O=C(c1ccc(Cl)cc1)C1CCCN(Cc2ccc3ncccc3c2)C1 (centres undefined) | 12.3% (inactive) |  |
